The values that follow come from ChEMBL document CHEMBL3621090, “Discovery of a novel Kv7 channel opener as a treatment for epilepsy” (Bioorg Med Chem Lett, 2015).

Structures are written as SMILES.

Series [1] deals with Voltage-gated potassium channel, KQT; KCNQ2(Kv7.2)/KCNQ3(Kv7.3) (Homo sapiens) (UniProt O43526+O43525). The experiment in a line: (§1) Activation of human Kv7.2/7.3 expressed in CHOK1 cells. The conditions noted are these: CHO-K1. The class given is cell-based.
Series [2] deals with Voltage-gated potassium channel, KQT; KCNQ2(Kv7.2)/KCNQ3(Kv7.3) (Homo sapiens, UniProt O43525+O43526). The description is as §1. The class given is cell-based, CHO-K1.
Sequence of Voltage-gated potassium channel, KQT; KCNQ2(Kv7.2)/KCNQ3(Kv7.3) (O43526 whole entry): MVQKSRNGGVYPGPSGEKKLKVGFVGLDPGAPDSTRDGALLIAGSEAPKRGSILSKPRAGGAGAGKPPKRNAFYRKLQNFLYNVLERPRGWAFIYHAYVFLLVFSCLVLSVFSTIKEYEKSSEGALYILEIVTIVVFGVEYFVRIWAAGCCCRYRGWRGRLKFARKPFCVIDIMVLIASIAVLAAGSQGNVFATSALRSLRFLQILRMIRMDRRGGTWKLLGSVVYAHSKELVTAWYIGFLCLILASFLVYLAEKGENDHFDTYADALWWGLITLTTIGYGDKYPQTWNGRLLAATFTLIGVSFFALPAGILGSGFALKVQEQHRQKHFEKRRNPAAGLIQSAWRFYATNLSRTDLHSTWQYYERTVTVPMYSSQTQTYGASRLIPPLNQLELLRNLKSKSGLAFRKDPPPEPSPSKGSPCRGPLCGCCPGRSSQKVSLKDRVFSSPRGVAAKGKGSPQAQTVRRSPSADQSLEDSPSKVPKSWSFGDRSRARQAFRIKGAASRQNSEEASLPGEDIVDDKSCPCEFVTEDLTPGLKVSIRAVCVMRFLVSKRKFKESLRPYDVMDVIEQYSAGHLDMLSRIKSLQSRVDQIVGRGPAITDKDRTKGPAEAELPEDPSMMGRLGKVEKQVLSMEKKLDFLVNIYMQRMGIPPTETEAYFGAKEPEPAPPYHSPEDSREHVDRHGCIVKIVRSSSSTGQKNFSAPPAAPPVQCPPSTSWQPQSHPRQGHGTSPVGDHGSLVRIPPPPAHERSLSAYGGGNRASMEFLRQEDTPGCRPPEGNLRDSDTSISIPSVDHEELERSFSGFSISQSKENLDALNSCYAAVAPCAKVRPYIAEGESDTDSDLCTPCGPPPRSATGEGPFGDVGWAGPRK
Sequence of Voltage-gated potassium channel, KQT; KCNQ2(Kv7.2)/KCNQ3(Kv7.3) (O43525 whole entry): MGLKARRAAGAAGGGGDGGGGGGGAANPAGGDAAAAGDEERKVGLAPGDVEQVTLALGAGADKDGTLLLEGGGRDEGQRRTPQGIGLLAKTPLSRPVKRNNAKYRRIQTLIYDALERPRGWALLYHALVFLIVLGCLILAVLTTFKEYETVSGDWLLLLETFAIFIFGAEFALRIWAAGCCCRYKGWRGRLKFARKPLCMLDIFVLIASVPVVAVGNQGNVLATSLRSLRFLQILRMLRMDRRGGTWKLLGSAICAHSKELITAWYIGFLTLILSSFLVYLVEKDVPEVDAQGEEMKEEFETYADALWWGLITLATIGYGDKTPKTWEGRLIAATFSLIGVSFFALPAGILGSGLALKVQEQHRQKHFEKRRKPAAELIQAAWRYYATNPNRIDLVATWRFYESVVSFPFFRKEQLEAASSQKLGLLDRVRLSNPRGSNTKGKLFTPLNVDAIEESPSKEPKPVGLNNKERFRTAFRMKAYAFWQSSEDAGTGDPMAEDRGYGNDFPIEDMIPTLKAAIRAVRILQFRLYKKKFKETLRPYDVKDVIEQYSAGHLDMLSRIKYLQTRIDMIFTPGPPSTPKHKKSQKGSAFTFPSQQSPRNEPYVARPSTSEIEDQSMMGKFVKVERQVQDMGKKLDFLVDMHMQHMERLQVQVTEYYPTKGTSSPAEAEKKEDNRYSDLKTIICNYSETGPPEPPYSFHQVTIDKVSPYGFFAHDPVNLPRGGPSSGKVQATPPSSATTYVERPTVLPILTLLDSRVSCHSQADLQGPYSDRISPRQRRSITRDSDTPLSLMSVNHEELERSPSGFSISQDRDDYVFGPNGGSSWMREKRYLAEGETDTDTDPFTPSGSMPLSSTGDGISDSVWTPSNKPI
Series [3] is described as follows: Intrinsic clearance in human liver microsomes measured over 1 hr in presence of NADPH regenerating system. The series is classed as ADME. The settings on record: read-out: CLH. For orientation: Liver microsomes are a subcellular fraction often used to study metabolism.
The nature of series [4]: Toxicity in human THLE cells assessed as ATP depletion. The class given is cell-based.
For another series, the system named is MDCK. The experiment in a line: Efflux ratio of permeability from basolateral to apical over apical to basolateral side in MDCK cells transfected with MDR1. The settings on record: dog. The class given is ADME, cell-based, Canis lupus familiaris.
Series [5] can be described thus: Permeability in dog RRCK cells after 2 hrs by transwell assay. The settings on record: mdck, read-out: permeability. The series is classed as ADME, cell-based, Canis lupus familiaris, MDCKII-LE.
A further series has as its system Liver microsome. As to the kind of experiment: Stability in human liver microsomes in absence of NADPH. The series is classed as ADME.

The EC50 is the concentration at which the effect is half-maximal. `COc1nc(N2CCC(OC)CC2)nc(OC)c1NC(=O)CC1CCCCC1` had a max activation in series [1] of 152%. Moreover, a half-maximal response in series [2] (EC50) required 162 nM.

With `COc1nc(N2CCC(OC)CC2)nc(OC)c1NC(=O)CC(C)C`, the max activation in series [1] came out at 138%. The EC50 in series [2] turned out to be 630 nM.

Molecule `COc1nc(N2CC3(COC3)C2)nc(OC)c1NC(=O)CC(C)(C)C` returned a max activation in series [1] of 106%. This molecule also returned a concentration for a half-maximal effect (EC50) in series [2] of 9190 nM.

For `COc1nc(N2C[C@@H]3C[C@H]2CO3)nc(OC)c1NC(=O)CC(C)(C)C`, the max activation in series [1] was found to be 101%. For the same molecule, the midpoint of the response in series [2], the EC50, lay at 1890 nM.

For orientation: IC50 means the concentration that gives 50% inhibition. On to `CCOC(=O)Nc1ccc(NCc2ccc(F)cc2)cc1N` [EZOGABINE], for which, in series [3], the CLint scaled was under 8 mL/min/kg. Besides, in series [4], the IC50 worked out at 213 µM. For the same molecule, the Ratio in the series with MDCK is listed as 1.13. The Papp at 2 h in series [5] is 34.2 ×10⁻⁶ cm/s.

As for `COc1nc(N2CC(F)(F)C2)nc(OC)c1NC(=O)CC(C)(C)C`, in series [3], the CLint scaled was found to be 18.9 mL/min/kg. Besides, the half-inhibitory concentration (IC50) in series [4] was over 300 µM. Also, in the series on MDCK, the Ratio is 1.29. For the same molecule, the Papp at 2 h in series [5] was determined as 28 ×10⁻⁶ cm/s. This molecule also yielded a max activation in series [1] of 103%. The molecule further returned an EC50 in series [2] of 110 nM.

Regarding `COc1nc(N2CCC(OC)CC2)nc(OC)c1NC(=O)CC1CCCC1`, in series [1], the max activation was 143%. Also, the 50% effective concentration (EC50) in series [2] turned out to be 343 nM.

Turning to `COc1nc(N2CCC(OC(C)C)CC2)nc(OC)c1NC(=O)CC(C)(C)C`, the max activation in series [1] worked out at 145%. Further, a half-maximal effect in series [2] (EC50) was put at 358 nM.

`COc1nc(N2CCC(OC)CC2)nc(OC)c1NC(=O)CCC(C)C` yielded a max activation in series [1] of 132%. In addition, in series [2], a half-maximal response (EC50) required 304 nM.

On to `COc1nc(N2CCCCC2)nc(OC)c1NC(=O)CC(C)(C)C`, for which, in series [3], the CLint scaled is 43.7 mL/min/kg. Further, in series [4], the IC50 is over 300 µM. Further, in the series with MDCK, the Ratio is recorded as 1.59. Further, in series [5], the Papp at 2 h amounted to 22.3 ×10⁻⁶ cm/s. This molecule gave a max activation in series [1] of 182%. Further, the midpoint of the response in series [2], the EC50, lay at 64 nM.

Regarding `COc1nc(N2CC(OC)C2)nc(OC)c1NC(=O)CC(C)(C)C`, in series [1], the max activation worked out at 103%. In series [2], the half-maximal effective concentration (EC50) amounted to 961 nM.

Take `COc1nc(N2CCC(F)(F)CC2)nc(OC)c1NC(=O)CC(C)(C)C`: in series [3], the CLint scaled came to 21.6 mL/min/kg. For the same molecule, the IC50 in series [4] was over 300 µM. In the series with MDCK, the Ratio is 1.29. Besides, the max activation in series [1] turned out to be 99%. The molecule further gave an EC50 in series [2] of 50 nM.

Consider `COCCN(C)c1nc(OC)c(NC(=O)CC(C)(C)C)c(OC)n1`, for which, in series [3], the CLint scaled worked out at 21 mL/min/kg. The IC50 in series [4] was over 300 µM. The Ratio in the series on MDCK is 1.11. The same molecule came in with a max activation in series [1] of 166%. For the same molecule, the 50% effective concentration (EC50) in series [2] worked out at 206 nM.

With `COc1nc(N2CCC(OC)CC2)nc(OC)c1NC(=O)CCC1CCCC1`, the Stability result in the series with Liver microsome was “Unstable”. In addition, in series [4], the concentration for half-maximal inhibition (IC50) was found to be 80.5 µM. In addition, in the series on MDCK, the Ratio is recorded as 1.21. The Papp at 2 h in series [5] was 15.2 ×10⁻⁶ cm/s. The max activation in series [1] is 126%. Further, the midpoint of the response in series [2], the EC50, lay at 40 nM.

On to `COc1nc(N2CCOCC2)nc(OC)c1NC(=O)CC(C)(C)C`, for which, in series [3], the CLint scaled was under 10.4 mL/min/kg. Besides, in series [4], the 50% inhibitory concentration (IC50) is over 300 µM. Moreover, the Ratio in the series on MDCK is on record as 1.11. Also, in series [5], the Papp at 2 h was 25.9 ×10⁻⁶ cm/s. Also, the max activation in series [1] amounted to 95%. Besides, a half-maximal effect in series [2] (EC50) was put at 164 nM.

For `COc1nc(N2CCCOCC2)nc(OC)c1NC(=O)CC(C)(C)C`, in series [3], the CLint scaled was determined as 24.4 mL/min/kg. For the same molecule, in series [4], the IC50 is over 300 µM. In the series on MDCK, the Ratio was found to be 1.25. For the same molecule, the Papp at 2 h in series [5] was found to be 20.2 ×10⁻⁶ cm/s. This molecule returned a max activation in series [1] of 85%. In series [2], this molecule registered an EC50 of 62 nM.

As for `COc1nc(N2CCSCC2)nc(OC)c1NC(=O)CC(C)(C)C`, the CLint scaled in series [3] came out at 69.6 mL/min/kg. The max activation in series [1] came out at 92%. For the same molecule, a half-maximal effect in series [2] (EC50) was put at 24 nM.
